# In publication PMC3314994, “Inhibitors of human histone deacetylase with potent activity against the African trypanosome Trypanosoma brucei” (Bioorganic & Medicinal Chemistry Letters, 2012):
# Key:
# Trypanosoma brucei (BSF) = assay: Growth inhibition of cultured bloodstream form T. brucei; type: cell-based, Trypanosoma brucei (strain 427); details: Trypanosoma brucei, cultured bloodstream form, strain 427, triplicate; for IC50: read-out: Trypanosoma brucei (BSF) IC50 ± SD; for IC90: read-out: Trypanosoma brucei (BSF) IC90 ± SD
# Experimental: Treatment of parasites with micromolar levels of these inhibitors could result in cell death within 4 h (Fig. 1).
# [30] Growth inhibitory properties against cultured bloodstream form T. brucei were determined as described previously.[29] Experiments were performed in triplicate and data are presented as ±SD.
# HDAC (FDL_HELA) = assay: Histone deacetylase activity in HeLa cell lysates (fluorescent assay kit); type: biochemical, Human; details: lysed HeLa cells; read-out: HDAC (FDL_HELA) IC50 ± SD
# Experimental: (§1) The compounds from the different structural subclasses were all active as HDAC inhibitors, measured in an assay of enzymes in HeLa cell lysates.[23,24] HeLa cells express multiple HDACs, including HDAC 1, 2, 3, 4, and 8.[25–27] […] To further characterise the compounds with respect to HDAC selectivity, we determined their inhibitory properties against recombinant expressed human HDACs (rhHDAC 1–4, 6–9).[28]
# [24] Histone deacetylase activity was determined in lysed Human cervix epithelial cancer HeLa cells. To determine the IC50 of test compound a commercially available fluorescent assay kit was used employing an acetylated enzyme substrate.[23]
# rhHDAC 7 = biological target: T1, rhHDAC 7 (Homo sapiens, UniProt Q8WUI4); assay: Inhibition of recombinant human HDAC isoforms; type: biochemical; details: mean ± SD, triplicate per plate, min two plates; read-out: ED50 rhHDAC 7
# T1 sequence (Q8WUI4 1-952): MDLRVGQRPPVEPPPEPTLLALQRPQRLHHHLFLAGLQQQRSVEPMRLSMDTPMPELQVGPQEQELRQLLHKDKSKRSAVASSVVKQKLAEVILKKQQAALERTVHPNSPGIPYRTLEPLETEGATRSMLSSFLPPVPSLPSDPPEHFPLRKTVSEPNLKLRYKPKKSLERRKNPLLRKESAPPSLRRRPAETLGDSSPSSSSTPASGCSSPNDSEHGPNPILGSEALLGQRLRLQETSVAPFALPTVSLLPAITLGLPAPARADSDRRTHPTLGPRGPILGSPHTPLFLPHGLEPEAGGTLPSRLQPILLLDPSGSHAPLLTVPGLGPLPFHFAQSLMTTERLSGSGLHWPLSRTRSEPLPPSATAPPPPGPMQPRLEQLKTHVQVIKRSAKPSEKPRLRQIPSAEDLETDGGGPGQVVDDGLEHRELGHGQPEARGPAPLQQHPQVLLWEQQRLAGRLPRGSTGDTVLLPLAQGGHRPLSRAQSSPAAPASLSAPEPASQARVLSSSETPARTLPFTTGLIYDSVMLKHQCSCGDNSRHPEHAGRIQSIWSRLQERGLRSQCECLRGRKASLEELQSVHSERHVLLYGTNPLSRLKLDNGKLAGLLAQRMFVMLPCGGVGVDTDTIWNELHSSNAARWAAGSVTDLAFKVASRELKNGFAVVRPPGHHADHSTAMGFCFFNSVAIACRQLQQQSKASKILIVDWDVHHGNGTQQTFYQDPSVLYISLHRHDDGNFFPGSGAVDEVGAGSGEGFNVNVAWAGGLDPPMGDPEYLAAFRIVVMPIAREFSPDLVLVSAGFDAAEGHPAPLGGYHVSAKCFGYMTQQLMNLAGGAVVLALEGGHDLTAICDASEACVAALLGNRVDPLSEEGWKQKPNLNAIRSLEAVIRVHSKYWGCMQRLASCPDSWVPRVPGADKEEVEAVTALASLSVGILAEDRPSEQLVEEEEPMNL
# Excerpt: as §1
# rhHDAC 2 = rhHDAC 2 (Homo sapiens, UniProt Q92769); assay: Inhibition of recombinant human HDAC isoforms; type: biochemical; details: mean ± SD, triplicate per plate, min two plates; read-out: ED50 rhHDAC 2
# Excerpt: as §1
# rhHDAC 3 = rhHDAC 3 (Homo sapiens, UniProt O15379); assay: Inhibition of recombinant human HDAC isoforms; type: biochemical; details: mean ± SD, triplicate per plate, min two plates; read-out: ED50 rhHDAC 3
# Excerpt: as §1
# rhHDAC 9 = rhHDAC 9 (Homo sapiens, UniProt Q9UKV0); assay: Inhibition of recombinant human HDAC isoforms; type: biochemical; details: mean ± SD, triplicate per plate, min two plates; read-out: ED50 rhHDAC 9
# Excerpt: as §1
# rhHDAC 8 = biological target: T2, rhHDAC 8 (Homo sapiens, UniProt Q9BY41); assay: Inhibition of recombinant human HDAC isoforms; type: biochemical; details: mean ± SD, triplicate per plate, min two plates; read-out: ED50 rhHDAC 8
# T2 sequence (Q9BY41 1-377): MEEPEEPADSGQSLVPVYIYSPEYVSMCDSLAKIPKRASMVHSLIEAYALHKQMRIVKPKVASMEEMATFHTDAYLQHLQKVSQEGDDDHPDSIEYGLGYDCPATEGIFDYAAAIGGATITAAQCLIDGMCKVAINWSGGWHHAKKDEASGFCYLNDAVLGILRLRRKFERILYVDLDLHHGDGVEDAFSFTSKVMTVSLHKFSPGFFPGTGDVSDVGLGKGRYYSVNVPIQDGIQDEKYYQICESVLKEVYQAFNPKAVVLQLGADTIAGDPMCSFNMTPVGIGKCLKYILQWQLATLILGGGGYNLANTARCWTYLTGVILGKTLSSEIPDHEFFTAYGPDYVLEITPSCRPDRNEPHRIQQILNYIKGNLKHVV
# Excerpt: as §1
# rhHDAC 6 = biological target: T3, rhHDAC 6 (Homo sapiens, UniProt Q9UBN7); assay: Inhibition of recombinant human HDAC isoforms; type: biochemical; details: mean ± SD, triplicate per plate, min two plates; read-out: ED50 rhHDAC 6
# T3 sequence (Q9UBN7 1-1215): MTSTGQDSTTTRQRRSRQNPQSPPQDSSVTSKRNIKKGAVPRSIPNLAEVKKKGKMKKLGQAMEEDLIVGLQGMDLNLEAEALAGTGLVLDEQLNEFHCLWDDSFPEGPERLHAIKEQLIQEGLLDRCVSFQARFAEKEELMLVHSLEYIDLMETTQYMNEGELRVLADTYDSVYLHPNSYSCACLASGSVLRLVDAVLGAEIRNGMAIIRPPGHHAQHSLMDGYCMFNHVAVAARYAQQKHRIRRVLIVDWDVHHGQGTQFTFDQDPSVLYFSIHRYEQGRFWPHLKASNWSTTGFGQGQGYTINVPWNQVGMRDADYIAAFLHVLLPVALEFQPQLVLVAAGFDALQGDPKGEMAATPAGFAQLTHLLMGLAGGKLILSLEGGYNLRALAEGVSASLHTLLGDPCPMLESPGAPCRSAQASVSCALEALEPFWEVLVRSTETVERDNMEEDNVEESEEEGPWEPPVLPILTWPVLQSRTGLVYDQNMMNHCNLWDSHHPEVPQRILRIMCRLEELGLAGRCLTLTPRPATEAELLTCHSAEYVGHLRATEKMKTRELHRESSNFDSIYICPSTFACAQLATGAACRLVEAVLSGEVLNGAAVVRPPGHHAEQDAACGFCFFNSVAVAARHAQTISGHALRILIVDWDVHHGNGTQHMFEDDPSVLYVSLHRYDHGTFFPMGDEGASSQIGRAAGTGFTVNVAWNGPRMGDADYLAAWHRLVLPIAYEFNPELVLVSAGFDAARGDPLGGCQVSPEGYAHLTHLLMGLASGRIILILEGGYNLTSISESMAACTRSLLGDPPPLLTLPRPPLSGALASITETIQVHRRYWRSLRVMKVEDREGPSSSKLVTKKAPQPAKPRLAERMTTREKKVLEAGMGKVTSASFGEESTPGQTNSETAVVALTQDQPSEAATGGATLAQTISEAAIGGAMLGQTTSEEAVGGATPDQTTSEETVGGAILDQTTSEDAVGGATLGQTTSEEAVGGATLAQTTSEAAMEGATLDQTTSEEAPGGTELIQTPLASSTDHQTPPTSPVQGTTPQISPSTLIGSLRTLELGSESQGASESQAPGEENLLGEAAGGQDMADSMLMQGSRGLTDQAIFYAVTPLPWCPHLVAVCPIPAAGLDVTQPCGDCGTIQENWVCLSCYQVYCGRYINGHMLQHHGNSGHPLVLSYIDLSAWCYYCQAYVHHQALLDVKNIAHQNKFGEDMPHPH
# Excerpt: as §1
# rhHDAC 1 = rhHDAC 1 (Homo sapiens, UniProt Q13547); assay: Inhibition of recombinant human HDAC isoforms; type: biochemical; details: mean ± SD, triplicate per plate, min two plates; read-out: ED50 rhHDAC 1
# Excerpt: as §1
# rhHDAC 4 = rhHDAC 4 (Homo sapiens, UniProt P56524); assay: Inhibition of recombinant human HDAC isoforms; type: biochemical; details: mean ± SD, triplicate per plate, min two plates; read-out: ED50 rhHDAC 4
# Excerpt: as §1
# Chain of rhHDAC 3 (O15379 whole entry, canonical isoform): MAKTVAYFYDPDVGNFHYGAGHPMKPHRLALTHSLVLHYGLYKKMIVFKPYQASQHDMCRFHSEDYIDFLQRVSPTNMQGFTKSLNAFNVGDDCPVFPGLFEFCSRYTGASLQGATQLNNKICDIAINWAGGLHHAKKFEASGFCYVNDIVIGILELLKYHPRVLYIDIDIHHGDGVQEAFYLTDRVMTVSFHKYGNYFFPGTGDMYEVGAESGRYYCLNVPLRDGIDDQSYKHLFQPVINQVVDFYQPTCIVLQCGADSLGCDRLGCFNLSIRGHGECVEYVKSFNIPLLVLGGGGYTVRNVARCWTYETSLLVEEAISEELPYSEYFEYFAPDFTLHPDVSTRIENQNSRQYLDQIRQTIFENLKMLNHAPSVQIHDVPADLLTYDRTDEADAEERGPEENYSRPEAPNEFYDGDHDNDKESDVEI
# Chain of rhHDAC 3 (Q9Y618 395-489 partner limits assumed): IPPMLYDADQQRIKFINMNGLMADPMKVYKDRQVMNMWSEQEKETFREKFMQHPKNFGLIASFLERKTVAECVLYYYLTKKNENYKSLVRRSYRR
# Chain of rhHDAC 4 (P56524 whole entry, canonical isoform): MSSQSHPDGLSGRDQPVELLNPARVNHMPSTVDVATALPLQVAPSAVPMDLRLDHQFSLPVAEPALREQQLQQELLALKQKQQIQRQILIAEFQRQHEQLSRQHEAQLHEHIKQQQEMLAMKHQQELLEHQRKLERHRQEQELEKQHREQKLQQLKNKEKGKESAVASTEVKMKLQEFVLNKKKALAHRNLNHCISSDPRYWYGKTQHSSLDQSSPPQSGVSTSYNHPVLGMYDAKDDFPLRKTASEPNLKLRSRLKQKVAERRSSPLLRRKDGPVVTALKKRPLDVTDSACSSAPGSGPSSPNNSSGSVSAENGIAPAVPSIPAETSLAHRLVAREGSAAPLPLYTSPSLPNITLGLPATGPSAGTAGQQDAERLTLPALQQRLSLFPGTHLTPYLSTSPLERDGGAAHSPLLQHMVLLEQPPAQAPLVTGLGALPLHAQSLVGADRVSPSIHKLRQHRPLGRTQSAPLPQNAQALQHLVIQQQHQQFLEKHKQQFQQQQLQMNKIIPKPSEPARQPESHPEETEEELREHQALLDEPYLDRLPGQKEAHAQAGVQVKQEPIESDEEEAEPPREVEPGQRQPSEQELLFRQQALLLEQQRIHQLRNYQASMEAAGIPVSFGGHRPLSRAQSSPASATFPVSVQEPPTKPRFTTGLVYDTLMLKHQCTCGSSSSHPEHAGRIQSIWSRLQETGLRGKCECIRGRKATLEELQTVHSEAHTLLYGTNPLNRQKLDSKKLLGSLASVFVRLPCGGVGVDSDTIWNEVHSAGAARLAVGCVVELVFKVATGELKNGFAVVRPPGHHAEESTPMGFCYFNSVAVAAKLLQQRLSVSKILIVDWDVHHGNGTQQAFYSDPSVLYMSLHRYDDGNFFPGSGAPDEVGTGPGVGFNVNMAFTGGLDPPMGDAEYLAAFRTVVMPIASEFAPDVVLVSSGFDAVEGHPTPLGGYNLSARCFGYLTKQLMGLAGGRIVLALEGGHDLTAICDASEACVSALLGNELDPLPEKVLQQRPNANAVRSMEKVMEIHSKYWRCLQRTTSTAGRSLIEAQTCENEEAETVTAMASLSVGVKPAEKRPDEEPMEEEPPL
# Chain of rhHDAC 9 (Q9UKV0 whole entry, canonical isoform): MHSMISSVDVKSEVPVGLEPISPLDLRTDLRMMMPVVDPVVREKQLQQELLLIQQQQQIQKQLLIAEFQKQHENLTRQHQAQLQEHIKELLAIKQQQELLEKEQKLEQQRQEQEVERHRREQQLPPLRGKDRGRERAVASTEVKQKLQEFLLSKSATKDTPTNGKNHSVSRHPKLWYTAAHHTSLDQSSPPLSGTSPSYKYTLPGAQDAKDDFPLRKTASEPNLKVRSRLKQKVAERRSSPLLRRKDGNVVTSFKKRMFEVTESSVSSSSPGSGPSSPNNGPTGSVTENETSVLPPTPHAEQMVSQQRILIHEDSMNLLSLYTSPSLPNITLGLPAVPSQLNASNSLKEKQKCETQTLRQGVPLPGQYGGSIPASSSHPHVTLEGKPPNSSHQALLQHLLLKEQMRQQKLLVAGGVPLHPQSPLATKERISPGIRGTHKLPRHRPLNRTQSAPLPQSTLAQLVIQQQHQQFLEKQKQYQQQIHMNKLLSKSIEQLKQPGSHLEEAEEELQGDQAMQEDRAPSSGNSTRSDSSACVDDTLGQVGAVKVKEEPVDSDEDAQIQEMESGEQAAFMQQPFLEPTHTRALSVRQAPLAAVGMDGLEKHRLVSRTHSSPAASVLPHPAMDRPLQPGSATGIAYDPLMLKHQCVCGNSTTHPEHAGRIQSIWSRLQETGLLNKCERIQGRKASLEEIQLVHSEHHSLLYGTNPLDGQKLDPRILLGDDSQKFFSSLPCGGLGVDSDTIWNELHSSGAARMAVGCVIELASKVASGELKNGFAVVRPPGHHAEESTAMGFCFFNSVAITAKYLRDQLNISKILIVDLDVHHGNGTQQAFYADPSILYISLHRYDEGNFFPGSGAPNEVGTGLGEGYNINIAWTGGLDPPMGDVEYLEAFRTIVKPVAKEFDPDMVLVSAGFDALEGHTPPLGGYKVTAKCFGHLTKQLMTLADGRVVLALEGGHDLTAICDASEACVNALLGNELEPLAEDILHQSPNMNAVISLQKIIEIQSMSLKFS
# Chain of rhHDAC 1 (Q13547 whole entry, canonical isoform): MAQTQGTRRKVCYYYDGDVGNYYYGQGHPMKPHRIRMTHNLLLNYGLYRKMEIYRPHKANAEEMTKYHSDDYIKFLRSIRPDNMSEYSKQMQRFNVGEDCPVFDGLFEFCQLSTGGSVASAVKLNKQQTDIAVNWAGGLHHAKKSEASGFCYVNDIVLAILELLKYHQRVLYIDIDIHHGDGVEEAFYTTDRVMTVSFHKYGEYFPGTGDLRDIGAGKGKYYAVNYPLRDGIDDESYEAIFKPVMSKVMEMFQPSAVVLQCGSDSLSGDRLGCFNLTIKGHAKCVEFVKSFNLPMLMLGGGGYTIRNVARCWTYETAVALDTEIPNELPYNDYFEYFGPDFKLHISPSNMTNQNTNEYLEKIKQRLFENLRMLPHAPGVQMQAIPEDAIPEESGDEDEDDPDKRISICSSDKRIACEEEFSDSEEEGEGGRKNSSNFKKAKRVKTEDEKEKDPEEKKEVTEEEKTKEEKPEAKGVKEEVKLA
# Chain of rhHDAC 2 (Q92769 whole entry, canonical isoform): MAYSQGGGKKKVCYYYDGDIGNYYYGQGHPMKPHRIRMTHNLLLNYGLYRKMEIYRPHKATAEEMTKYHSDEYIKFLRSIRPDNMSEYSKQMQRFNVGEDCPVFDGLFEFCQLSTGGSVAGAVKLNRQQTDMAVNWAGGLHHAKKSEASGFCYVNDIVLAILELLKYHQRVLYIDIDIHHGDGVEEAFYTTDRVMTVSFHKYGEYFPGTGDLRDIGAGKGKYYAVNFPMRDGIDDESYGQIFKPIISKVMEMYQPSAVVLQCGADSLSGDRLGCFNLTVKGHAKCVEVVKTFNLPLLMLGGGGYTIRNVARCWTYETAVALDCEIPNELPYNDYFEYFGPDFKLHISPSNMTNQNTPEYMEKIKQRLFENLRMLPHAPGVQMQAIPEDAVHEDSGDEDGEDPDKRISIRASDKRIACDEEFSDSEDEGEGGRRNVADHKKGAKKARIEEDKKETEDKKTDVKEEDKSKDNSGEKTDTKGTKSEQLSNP
IC50 (Trypanosoma brucei (BSF)) [nM],IC90 (Trypanosoma brucei (BSF)) [nM],IC50 (HDAC (FDL_HELA)) [nM],IC50 (rhHDAC 7) [nM],IC50 (rhHDAC 2) [nM],IC50 (rhHDAC 3) [nM],IC50 (rhHDAC 9) [nM],IC50 (rhHDAC 8) [nM],IC50 (rhHDAC 6) [nM],IC50 (rhHDAC 1) [nM],IC50 (rhHDAC 4) [nM],Compound
34 ± 2,66 ± 4,84 ± 53,,,,,,,,,O=C(/C=C/c1cccc(S(=O)(=O)N2CCN(c3ncccn3)CC2)c1)NO [Compound 1]
64 ± 5,130 ± 5,149 ± 6,,,,,,,,,O=C(/C=C/c1cccc(S(=O)(=O)N2CCN(c3ccc(Cl)cc3)CC2)c1)NO [Compound 2]
86 ± 9,201 ± 5,123 ± 76,100 ± 97,55 ± 6,2.8 ± 0.4,86 ± 61,581 ± 334,179 ± 115,,,O=C(/C=C/c1cccc(S(=O)(=O)N2CCN(c3ccccn3)CC2)c1)NO [Compound 3]
123 ± 6,169 ± 8,187 ± 82,,,,,,,,,O=C(/C=C/c1cccc(S(=O)(=O)N2CCN(c3cccc(Cl)c3)CC2)c1)NO [Compound 4]
137 ± 7,220 ± 7,,,,,,,,,,O=C(/C=C/c1cccc(S(=O)(=O)Nc2ccc(OC(F)(F)F)cc2)c1)NO [Compound 5]
141 ± 9,224 ± 14,191 ± 36,,,,,,,,,O=C(/C=C/c1cccc(S(=O)(=O)N2CCN(c3ccccc3F)CC2)c1)NO [Compound 6]
154 ± 13,281 ± 19,68 ± 36,,,,,,,,,O=C(/C=C/c1cccc(S(=O)(=O)N2CCN(c3ccccc3Cl)CC2)c1)NO [Compound 7]
154 ± 13,306 ± 61,10 ± 2,,,,,,,,,O=C(/C=C/c1cccc(S(=O)(=O)Nc2ccc(OC(F)F)cc2)c1)NO [Compound 8]
155 ± 18,310 ± 40,28 ± 4,,,,,,,,,COc1ccc2nc(/C=C/C(=O)NO)ccc2c1 [Compound 9]
156 ± 3,224 ± 3,212 ± 112,,36 ± 0.7,295 ± 290,1180,955 ± 166,107 ± 13,76 ± 6,870,COc1ccc(N2CCN(S(=O)(=O)c3cccc(/C=C/C(=O)NO)c3)CC2)cc1 [Compound 10]
167 ± 12,228 ± 2,132 ± 103,,,,,,,,,O=C(/C=C/c1cccc(S(=O)(=O)N2CCN(c3ccccc3)CC2)c1)NO [Compound 11]
198 ± 5,265 ± 5,22 ± 2,,310 ± 28,96 ± 46,145 ± 151,328 ± 193,305 ± 19,53 ± 3,,COc1ccccc1N1CCN(S(=O)(=O)c2cccc(/C=C/C(=O)NO)c2)CC1 [Compound 12]
198 ± 21,333 ± 28,22 ± 2,,,,,,,,,COc1cccc(NS(=O)(=O)c2cccc(/C=C/C(=O)NO)c2)c1 [Compound 13]
261 ± 38,485 ± 43,269 ± 87,,,,,,,,,O=C(/C=C/c1cccc(S(=O)(=O)N2CCN(Cc3ccc4c(c3)OCO4)CC2)c1)NO [Compound 14]
343 ± 17,710 ± 17,20 ± 4,216 ± 133,221 ± 141,89 ± 32,109 ± 56,211 ± 42,35 ± 16,44 ± 0.1,65 ± 20,O=C(/C=C/c1cccc(S(=O)(=O)Nc2cccc(F)c2)c1)NO [Compound 15]
353 ± 16,648 ± 20,22,,,,,,,,,O=C(/C=C/c1ccc2ccccc2n1)NO [Compound 16]
368 ± 23,651 ± 83,42 ± 11,,,,,,,,,O=C(/C=C/c1cccc(S(=O)(=O)Nc2ccc(Cl)cc2)c1)NO [Compound 17]
606 ± 81,956 ± 35,13 ± 5,42 ± 22,105 ± 64,23 ± 2,26 ± 3,167 ± 72,36 ± 3,19 ± 1,33 ± 1,COc1ccc(NS(=O)(=O)c2cccc(/C=C/C(=O)NO)c2)cc1 [Compound 18]
927 ± 57,2150 ± 140,23 ± 5,,,,,,,,,COc1ccc(NS(=O)(=O)c2cccc(/C=C/C(=O)NO)c2)cc1OC [Compound 19]
> 10000,,29 ± 16,,,,,,,,,O=C(/C=C/c1ccc2c(c1)OCO2)NCCCCCC(=O)NO [Compound 21]
> 10000,,20 ± 2,,,,,,,,,O=C(/C=C/c1ccccc1)NCCCCCC(=O)NO [Compound 22]
> 10000,,,,,,,,,,,CC(/C=C/c1ccccc1)=C\C(=O)NCCCCCC(=O)NO [Compound 23]
> 10000,,,,,,,,,,,CN(CCCCCC(=O)NO)C(=O)/C=C/C=C/c1ccccc1 [Compound 24]
